Like-named read-outs stand apart in the source and are kept apart here.
Tested on: adults smoking 10+ cigarettes daily
Conditions: for Quit Rate, End-of-Treatment Week 4 / Quit Rate, Continuous Abstinence Weeks 5 to 8: CO<10 ppm confirmed; for Reduction in cigarettes smoked / Reduction in CO: 25 days; for Drug-placebo difference in quit rate: cytisinicline 3.0 mg TID; for Reduction in CO: expired CO; for Quit Rate, Continuous Abstinence Weeks 5 to 8: off treatment
[1] = cytisine 1.5 mg, downward titration (COM) schedule
[2] = cytisine 3.0 mg TID, listed as CYT
[3] = cytisine 3.0 mg TID, listed as Cytisinicline
[4] = cytisine 3.0 mg, downward titration (COM) schedule

Protocol: This was a six-arm, multi-center, double-blind, randomized, placebo-controlled study conducted in male or female adults ≥18 years of age, smoking 10+ cigarettes daily, and willing to set a quit date that is 5-7 days after randomization. […] The study also evaluated the effectiveness of a simplified TID dosing schedule for 1.5 mg and an increased dose of 3.0 mg (using both the commercial titration (COM) and simplified TID dosing schedules).
Study treatment started the day after randomization such that study treatment was initiated prior to the quit date, as shown in FIG. 3.
The primary efficacy endpoint for this study was the percent reduction in the number of cigarettes smoked during treatment, which was calculated as follows:
where N=total number of cigarettes smoked, B=number of cigarettes smoked at baseline and D=number of days.
The primary outcome (Cigarette Score) and the main secondary abstinence outcomes were subjected to sensitivity analyses. The main secondary abstinence outcomes were the initial quit rate at Week 4 and continued 4-week abstinence through Week 5 to Week 8, confirmed by expired carbon monoxide (CO) of <10 ppm designated as Cess/W5-8/CO Success.
Carbon monoxide (CO) levels (ppm) were assessed during the study at screening, baseline, end of study treatment intervention (Week 4), and weekly through Week 8 (FIG. 9).
Serum cotinine levels were exploratory and assessed only at screening, Week 4, and Week 8. Reported results for cotinine of <10 ng/mL were transformed to 0 ng/mL prior to statistical analysis.
The primary outcome was based on the number of cigarettes smoked on each day from a diary. The Cigarette Score used the diary data for the planned 25 days while on study treatment. Presented are sensitivity analyses for the comparison of the 3.0 mg TID arm and the pooled placebo arm related to variations on the primary analysis of Cigarette Score. The alternative definition of the Cigarette Score featured cigarettes recorded in the diary after the planned quit period of Days 5-7, that is, from Day 8 onward, instead of from Day 1 onward.
Another alterative analysis was based on re-analyses of the primary Cigarette Score and the above alternative Cigarette Score, with a weight related to the standard error of the mean number of cigarettes estimated from the diary entries. The weight used for each subject was 1/(SE)^2, where SE is the standard error of the mean estimate, and this type of weighting, referred to as inverse variance weighting, is used commonly. This weighting gives greater weight to means that are estimated with a smaller SE. A small modification to this definition of weight was necessary, however. In computing 1/(SE)^2, a specific rule was used when SE=0, specifically when all diary entry values were equal. In these cases, the SE was computed as if one and only one of the recorded values was larger by one. It can be shown that when this modification to the data is made SE=1/N, where N is the number of the subjects daily (days) entries.

O=c1cccc2n1C[C@@H]1CNC[C@H]2C1 [cytisine, (−)-Cytisine]
Quit Rate, End-of-Treatment Week 4 (cytisine 1.5 mg TID): 52% | Quit Rate, End-of-Treatment Week 4 [1]: 51% | Quit Rate, End-of-Treatment Week 4 (cytisine 3.0 mg TID): 54% | Quit Rate, End-of-Treatment Week 4 [2]: 54% | Quit Rate, End-of-Treatment Week 4 [3]: 54% | Quit Rate, End-of-Treatment Week 4 [4]: 50% | Serum cotinine levels (all cytisine-treated arms, Week 4): material reduction in cotinine levels | OR for initial quit rate at Week 4 versus placebo (cytisine 1.5 mg TID): 5.81 | OR for prolonged abstinence Week 5 to Week 8 versus placebo (cytisine 1.5 mg TID): 4.33 | Reduction in cigarettes smoked (cytisine 1.5 mg TID): 79% | OR for initial quit rate at Week 4 versus placebo (cytisine 1.5 mg, COM schedule): 5.59 | OR for prolonged abstinence Week 5 to Week 8 versus placebo (cytisine 1.5 mg, COM schedule): 3.23 | Reduction in cigarettes smoked [1]: 80% | OR for initial quit rate at Week 4 versus placebo (cytisine 3.0 mg TID): 6.31 | OR for prolonged abstinence Week 5 to Week 8 versus placebo (cytisine 3.0 mg TID): 5.04 | Reduction in cigarettes smoked (cytisine 3.0 mg TID): 74% | OR for initial quit rate at Week 4 versus placebo [3]: 6.3 | OR for prolonged abstinence Week 5 to Week 8 versus placebo [3]: 5.0 | OR for initial quit rate at Week 4 versus placebo (cytisine 3.0 mg, COM schedule): 5.38 | OR for prolonged abstinence Week 5 to Week 8 versus placebo (cytisine 3.0 mg, COM schedule): 2.24 | Reduction in cigarettes smoked [4]: 78% | Drug-placebo difference in quit rate (4 weeks = end of treatment): 38.3% | Drug-placebo difference in quit rate (4 weeks off treatment (Weeks 5-8)): 22.2% | Reduction in CO (cytisine 1.5 mg TID): 71% | Reduction in CO [1]: 78% | Reduction in CO (cytisine 3.0 mg TID): 80% | Reduction in CO [4]: 71% | Cigarette Score effect estimate (3.0 mg TID versus pooled placebo) (not weighted, diary start: Quit Day (8th day after start of intervention)): −11.8 | Cigarette Score effect estimate (3.0 mg TID versus pooled placebo) (not weighted, diary start: start of intervention (primary outcome)): −9.5 | Quit Rate, Continuous Abstinence Weeks 5 to 8 (cytisine 1.5 mg TID): 27% | Quit Rate, Continuous Abstinence Weeks 5 to 8 [1]: 22% | Quit Rate, Continuous Abstinence Weeks 5 to 8 (cytisine 3.0 mg TID): 30% | Quit Rate, Continuous Abstinence Weeks 5 to 8 [2]: 30% | Quit Rate, Continuous Abstinence Weeks 5 to 8 [3]: 30% | Quit Rate, Continuous Abstinence Weeks 5 to 8 [4]: 16% | Cigarette Score effect estimate (3.0 mg TID versus pooled placebo) (weighted analysis, diary start: Quit Day (8th day after start of intervention)): −15.0 | Cigarette Score effect estimate (3.0 mg TID versus pooled placebo) (weighted analysis, diary start: start of intervention): −11.8
